Measured values published in patent US12077503B2, “Substituted cyclic amides and their use as herbicides” (FMC CORPORATION, priority 2015, dated 2024).

Experiments:
Type in all cases: in vivo
[1] = tested on: barnyardgrass (Echinochloa crus-galli); assay: Test A postemergence
Procedure, shortened: (§1)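 Each rating is a visual injury score from 0 to 100 given about 10 d after treatment, judged against untreated controls kept alongside in the greenhouse. In loam soil–sand blend, seeds got a preemergence directed soil spray, while postemergence plants were 2 to 10 cm tall at spraying.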

[2] = tested on: giant foxtail (Setaria faberii); assay: Test A postemergence
Procedure, shortened: as §1

[3] = tested on: wheat (Triticum aestivum); assay: Test A postemergence
Procedure, shortened: as §1

[4] = tested on: crabgrass, large (Digitaria sanguinalis); assay: Test A postemergence
Procedure, shortened: as §1

[5] = tested on: morningglory (Ipomoea spp.); assay: Test A postemergence
Procedure, shortened: as §1

[6] = tested on: pigweed (Amaranthus retroflexus); assay: Test A postemergence
Procedure, shortened: as §1

corn (Zea mays) [7] = assay: Test A postemergence
Procedure, shortened: as §1

[8] = tested on: velvetleaf (Abutilon theophrasti); assay: Test A postemergence
Procedure, shortened: as §1

[9] = tested on: barnyardgrass (Echinochloa crus-galli); assay: Test A preemergence; conditions: for Barnyardgrass plant response rating (0 to 100 scale): Preemergence, 0 is no effect, 100 is complete control
Procedure, shortened: as §1

[10] = tested on: giant foxtail (Setaria faberii); assay: Test A preemergence; conditions: for Foxtail, Giant plant response rating (0 to 100 scale): Preemergence, 0 is no effect, 100 is complete control
Procedure, shortened: as §1

[11] = tested on: wheat (Triticum aestivum); assay: Test A preemergence; conditions: for Wheat plant response rating (0 to 100 scale): Preemergence, 0 is no effect, 100 is complete control
Procedure, shortened: as §1

[12] = tested on: crabgrass, large (Digitaria sanguinalis); assay: Test A preemergence; conditions: for Crabgrass, Large plant response rating (0 to 100 scale): Preemergence, 0 is no effect, 100 is complete control
Procedure, shortened: as §1

[13] = tested on: morningglory (Ipomoea spp.); assay: Test A preemergence; conditions: for Morningglory plant response rating (0 to 100 scale): Preemergence, 0 is no effect, 100 is complete control
Procedure, shortened: as §1

[14] = tested on: pigweed (Amaranthus retroflexus); assay: Test A preemergence; conditions: for Pigweed plant response rating (0 to 100 scale): Preemergence, 0 is no effect, 100 is complete control
corn (Zea mays) [15] = assay: Test A preemergence; conditions: for Corn plant response rating (0 to 100 scale): Preemergence, 0 is no effect, 100 is complete control
Procedure, shortened: as §1

[16] = tested on: velvetleaf (Abutilon theophrasti); assay: Test A preemergence; conditions: for Velvetleaf plant response rating (0 to 100 scale): Preemergence, 0 is no effect, 100 is complete control
Procedure, shortened: as §1

[17] = tested on: sedge, umbrella (small-flower umbrella sedge, Cyperus difformis); assay: Test B flooded paddy test; conditions: Flood, 1000 g ai/ha; 0 to 100 scale where 0 is no effect and 100 is complete control; 13 to 15 d
Procedure, shortened: (§2)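 Rating scale 0–100 (visual, vs untreated controls) after a 13–15 d greenhouse period; application to the flood layer, 3 cm above soil and maintained; plants at 2-leaf stage when treated.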

[18] = tested on: barnyardgrass (Echinochloa crus-galli); assay: Test B flooded paddy test; conditions: Flood, 1000 g ai/ha; 0 to 100 scale where 0 is no effect and 100 is complete control; 13 to 15 d
Procedure, shortened: as §2

rice (Oryra sativa) = assay: Test B flooded paddy test; conditions: Flood, 1000 g ai/ha; 0 to 100 scale where 0 is no effect and 100 is complete control; 13 to 15 d
Procedure, shortened: as §2

[19] = tested on: ducksalad (Heteranthera limosa); assay: Test B flooded paddy test; conditions: Flood, 1000 g ai/ha; 0 to 100 scale where 0 is no effect and 100 is complete control; 13 to 15 d
Procedure, shortened: as §2

[20] = 1000 g ai/ha, postemergence, 0 to 100 scale, 0 no effect, 100 complete control
[21] = 500 g ai/ha, postemergence, 0 to 100 scale, 0 no effect, 100 complete control
[22] = Postemergence, 125 g ai/ha, visual injury, 0 to 100 scale (0 no effect, 100 complete control), approx. 10 d
[23] = 125 g ai/ha, preemergence, 0 to 100 scale (0 no effect, 100 complete control)

Structure (SMILES): N#CCN(C(=O)C1C(=O)NCC1c1ccc(F)c(F)c1)c1ccccc1[N+](=O)[O-] (centres unmarked) [Compound 713]
- Plant response rating, Barnyardgrass [1, 20]: 0
- Plant response rating, Foxtail, Giant [2, 20]: 0
- Plant response rating, Wheat [3, 20]: 0
- Plant response rating, Crabgrass, Large [4, 20]: 0
- Plant response rating, Morningglory [5, 20]: 0
- Plant response rating, Pigweed [6, 20]: 0
- Plant response rating, Corn (corn (Zea mays) [7]; [20]): 0
- Plant response rating, Velvetleaf [8, 20]: 0
- Barnyardgrass plant response rating (0 to 100 scale) ([9]; 1000 g ai/ha): 0
- Foxtail, Giant plant response rating (0 to 100 scale) ([10]; 1000 g ai/ha): 40
- Wheat plant response rating (0 to 100 scale) ([11]; 1000 g ai/ha): 0
- Crabgrass, Large plant response rating (0 to 100 scale) ([12]; 1000 g ai/ha): 80
- Morningglory plant response rating (0 to 100 scale) ([13]; 1000 g ai/ha): 0
- Pigweed plant response rating (0 to 100 scale) ([14]; 1000 g ai/ha): 0
- Corn plant response rating (0 to 100 scale) (corn (Zea mays) [15]; 1000 g ai/ha): 0
- Velvetleaf plant response rating (0 to 100 scale) ([16]; 1000 g ai/ha): 0

Structure (SMILES): O=C1NCC(c2ccc(-c3ccccc3)cc2)C1C(=O)Nc1ccccc1F (racemic) [Compound 365]
- Plant response rating, Barnyardgrass [1, 21]: 0
- Plant response rating, Barnyardgrass [1, 22]: 0
- Plant response rating, Foxtail, Giant [2, 21]: 0
- Plant response rating, Foxtail, Giant [2, 22]: 0
- Plant response rating, Wheat [3, 21]: 0
- Plant response rating, Wheat [3, 22]: 0
- Plant response rating, Crabgrass, Large [4, 21]: 0
- Plant response rating, Crabgrass, Large [4, 22]: 0
- Plant response rating, Morningglory [5, 21]: 0
- Plant response rating, Morningglory [5, 22]: 0
- Plant response rating, Pigweed [6, 21]: 0
- Plant response rating, Pigweed [6, 22]: 0
- Plant response rating, Corn (corn (Zea mays) [7]; [21]): 0
- Plant response rating, Corn (corn (Zea mays) [7]; [22]): 0
- Plant response rating, Velvetleaf [8, 21]: 0
- Plant response rating, Velvetleaf [8, 22]: 0
- Plant response rating, Barnyardgrass [9, 23]: 0
- Barnyardgrass plant response rating (0 to 100 scale) ([9]; 500 g ai/ha): 0
- Plant response rating, Foxtail, Giant [10, 23]: 0
- Foxtail, Giant plant response rating (0 to 100 scale) ([10]; 500 g ai/ha): 0
- Plant response rating, Wheat [11, 23]: 0
- Wheat plant response rating (0 to 100 scale) ([11]; 500 g ai/ha): 0
- Plant response rating, Crabgrass, Large [12, 23]: 0
- Crabgrass, Large plant response rating (0 to 100 scale) ([12]; 500 g ai/ha): 0
- Plant response rating, Morningglory [13, 23]: 0
- Morningglory plant response rating (0 to 100 scale) ([13]; 500 g ai/ha): 0
- Plant response rating, Pigweed [14, 23]: 0
- Pigweed plant response rating (0 to 100 scale) ([14]; 500 g ai/ha): 0
- Plant response rating, Corn (corn (Zea mays) [15]; [23]): 0
- Corn plant response rating (0 to 100 scale) (corn (Zea mays) [15]; 500 g ai/ha): 0
- Plant response rating, Velvetleaf [16, 23]: 0
- Velvetleaf plant response rating (0 to 100 scale) ([16]; 500 g ai/ha): 0
- Plant response rating, Sedge, Umbrella [17]: 0
- Plant response rating, Barnyardgrass [18]: 0
- Plant response rating, Rice (rice (Oryra sativa)): 0
- Plant response rating, Ducksalad [19]: 0

Structure (SMILES): Nc1c(NC(=O)C2C(=O)NCC2c2ccc(F)c(F)c2)ccc(F)c1F (racemic) [Compound 358]
- Plant response rating, Barnyardgrass [1, 20]: 0
- Plant response rating, Foxtail, Giant [2, 20]: 30
- Plant response rating, Wheat [3, 20]: 0
- Plant response rating, Crabgrass, Large [4, 20]: 40
- Plant response rating, Morningglory [5, 20]: 0
- Plant response rating, Pigweed [6, 20]: 0
- Plant response rating, Corn (corn (Zea mays) [7]; [20]): 0
- Plant response rating, Velvetleaf [8, 20]: 0
- Barnyardgrass plant response rating (0 to 100 scale) ([9]; 1000 g ai/ha): 0
- Foxtail, Giant plant response rating (0 to 100 scale) ([10]; 1000 g ai/ha): 0
- Wheat plant response rating (0 to 100 scale) ([11]; 1000 g ai/ha): 0
- Crabgrass, Large plant response rating (0 to 100 scale) ([12]; 1000 g ai/ha): 50
- Morningglory plant response rating (0 to 100 scale) ([13]; 1000 g ai/ha): 0
- Pigweed plant response rating (0 to 100 scale) ([14]; 1000 g ai/ha): 0
- Corn plant response rating (0 to 100 scale) (corn (Zea mays) [15]; 1000 g ai/ha): 0
- Velvetleaf plant response rating (0 to 100 scale) ([16]; 1000 g ai/ha): 0
